Reference: US9661854B2, “Molecules having pesticidal utility, and intermediates, compositions, and processes, related thereto” (Dow AgroSciences LLC, priority 2015, dated 2017)

How the values were obtained:
[1] = system: Cabbage Looper (Trichoplusia ni, TRIPNI); experiment: Bioassay on Cabbage Looper (CL), 128-well diet tray assay; format: in vivo; details: 168 h, 50 μg/cm^2 on artificial diet, second instar larvae, 25° C., five to seven days, average of eight wells, read-out: CL % Control (or Mortality) rating
Experimental: (§1) Example A: Bioassays on Beet Armyworm (Spodoptera exigua, LAPHEG) (“BAW”) and Cabbage Looper (Trichoplusia ni, TRIPNI) (“CL”)
(§2) Certain molecules disclosed in this document were tested against BAW and CL using procedures described in the following examples. In the reporting of the results, the “BAW & CL Rating Table” was used (See Table Section).
Bioassays on CL were conducted using a 128-well diet tray assay. One to five second instar CL larvae were placed in each well (3 mL) of the diet tray that had been previously filled with 1 mL of artificial diet to which 50 μg/cm^2 of the test molecule (dissolved in 50 μL of 90:10 acetone-water mixture) had been applied (to each of eight wells) and then allowed to dry. Trays were covered with a clear self-adhesive cover, vented to allow gas exchange, and held at 25° C., 14:10 light-dark for five to seven days. Percent mortality was recorded for the larvae in each well; activity in the eight wells was then averaged. The results are indicated in the table entitled “Table ABC: Biological Results” (See Table Section).

[2] = system: Beet Armyworm (Spodoptera exigua, LAPHEG); experiment: Bioassay on Beet Armyworm (BAW), 128-well diet tray assay; format: in vivo; details: 168 h, 50 μg/cm^2 on artificial diet, second instar larvae, 25° C., five to seven days, average of eight wells, read-out: BAW % Control (or Mortality) rating
Experimental: as §1, §2
Bioassays on BAW were conducted using a 128-well diet tray assay. One to five second instar BAW larvae were placed in each well (3 mL) of the diet tray that had been previously filled with 1 mL of artificial diet to which 50 μg/cm^2 of the test molecule (dissolved in 50 μL of 90:10 acetone-water mixture) had been applied (to each of eight wells) and then allowed to dry. Trays were covered with a clear self-adhesive cover, vented to allow gas exchange, and held at 25° C., 14:10 light-dark for five to seven days. Percent mortality was recorded for the larvae in each well; activity in the eight wells was then averaged. The results are indicated in the table entitled “Table ABC: Biological Results” (See Table Section).

In the case of `Cc1ccc(C(C)C)c(N2C(=O)CS/C2=N\C(=O)Nc2ccc(CCc3ncn(-c4ccc(OC(F)(F)F)cc4)n3)cc2C(F)(F)F)c1` [F25, (Z)-1-(3-(2-Isopropyl-5-methylphenyl)-4-oxothiazolidin-2-ylidene)-3-(4-(2-(1-(4-(trifluoromethoxy)phenyl)-1H-1,2,4-triazol-3-yl)ethyl)-2-(trifluoromethyl)phenyl)urea], the mortality at 50 µg/cm2 [1] was 50 to 100% and the mortality at 50 µg/cm2 [2] was 50 to 100%.
`CC(C)c1ccc(C(F)(F)F)cc1N1C(=O)CS/C1=N\C(=O)Nc1ccc(CCc2ncn(-c3ccc(OC(F)(F)F)cc3)n2)cc1F` [F27, (Z)-1-(2-Fluoro-4-(2-(1-(4-(trifluoromethoxy)phenyl)-1H-1,2,4-triazol-3-yl)ethyl)phenyl)-3-(3-(2-isopropyl-5-(trifluoromethyl)phenyl)-4-oxothiazolidin-2-ylidene)urea] gave a mortality at 50 µg/cm2 [1] of 50 to 100% and a mortality at 50 µg/cm2 [2] of 50 to 100%.
For `Cc1ccc(C2CC2(F)F)c(N2C(=O)CS/C2=N\C(=O)Nc2ccc(CCc3ncn(-c4ccc(OC(F)(F)F)cc4)n3)cc2)c1` (stereo not shown) [F28, (Z)-1-(3-(2-(2,2-Difluorocyclopropyl)-5-methylphenyl)-4-oxothiazolidin-2-ylidene)-3-(4-(2-(1-(4-(trifluoromethoxy)phenyl)-1H-1,2,4-triazol-3-yl)ethyl)phenyl)urea], the mortality at 50 µg/cm2 [1] was 50 to 100% and the mortality at 50 µg/cm2 [2] was 50 to 100%.
Work on `CC(C)c1ccc(C(F)(F)F)cc1N1C(=O)CS/C1=N\C(=O)Nc1ccc(CCc2ncn(-c3ccc(OC(F)(F)F)cc3)n2)cc1` [F29, (Z)-1-(3-(2-Isopropyl-5-(trifluoromethyl)phenyl)-4-oxothiazolidin-2-ylidene)-3-(4-(2-(1-(4-(trifluoromethoxy)phenyl)-1H-1,2,4-triazol-3-yl)ethyl)phenyl)urea] yielded a mortality at 50 µg/cm2 [1] of 50 to 100% and a mortality at 50 µg/cm2 [2] of 50 to 100%.
Compound `Cc1ccc(C2CC2(F)F)c(N2C(=O)CS/C2=N\C(=O)Nc2ccc(CCc3ncn(-c4ccc(OC(F)(F)F)cc4)n3)cc2F)c1` (stereo not shown) [F30, (Z)-1-(3-(2-(2,2-Difluorocyclopropyl)-5-methylphenyl)-4-oxothiazolidin-2-ylidene)-3-(2-fluoro-4-(2-(1-(4-(trifluoromethoxy)phenyl)-1H-1,2,4-triazol-3-yl)ethyl)phenyl)urea] has a mortality at 50 µg/cm2 [1] of 50 to 100% and a mortality at 50 µg/cm2 [2] of 50 to 100%.
Work on `COC(C)c1ccc(C)cc1N1C(=O)CS/C1=N\C(=O)Nc1ccc(CCc2ncn(-c3ccc(OC(F)(F)F)cc3)n2)cc1` (stereo not shown) [F31, (Z)-1-(3-(2-(1-Methoxyethyl)-5-methylphenyl)-4-oxothiazolidin-2-ylidene)-3-(4-(2-(1-(4-(trifluoromethoxy)phenyl)-1H-1,2,4-triazol-3-yl)ethyl)phenyl)urea] yielded a mortality at 50 µg/cm2 [1] of 50 to 100% and a mortality at 50 µg/cm2 [2] of 50 to 100%.
Compound `Cc1ccc(C(C)C)c(N2C(=O)CS/C2=N\C(=O)Nc2ccc(CCc3ncn(-c4ccc(OC(F)(F)F)cc4)n3)cn2)c1` [F32, (Z)-1-(3-(2-Isopropyl-5-methylphenyl)-4-oxothiazolidin-2-ylidene)-3-(5-(2-(1-(4-(trifluoromethoxy)phenyl)-1H-1,2,4-triazol-3-yl)ethyl)pyridin-2-yl)urea] has a mortality at 50 µg/cm2 [1] of 50 to 100% and a mortality at 50 µg/cm2 [2] of 50 to 100%.
`Cc1ccc(C(C)C)c(N2C(=O)CS/C2=N\C(=O)Nc2ccc(CCc3ncn(-c4ccc(OC(F)(F)F)cn4)n3)cn2)c1` [F33, (Z)-1-(3-(2-Isopropyl-5-methylphenyl)-4-oxothiazolidin-2-ylidene)-3-(5-(2-(1-(5-(trifluoromethoxy)pyridin-2-yl)-1H-1,2,4-triazol-3-yl)ethyl)pyridin-2-yl)urea] showed a mortality at 50 µg/cm2 [1] of 50 to 100% and a mortality at 50 µg/cm2 [2] of 50 to 100%.
In the case of `Cc1ccc(C(C)C)c(N2C(=O)CS/C2=N\C(=O)Nc2ccc(CCc3ncn(-c4ncc(C(F)(F)F)cc4Cl)n3)cc2)c1` [F34, (Z)-1-(4-(2-(1-(3-Chloro-5-(trifluoromethyl)pyridin-2-yl)-1H-1,2,4-triazol-3-yl)ethyl)phenyl)-3-(3-(2-isopropyl-5-methylphenyl)-4-oxothiazolidin-2-ylidene)urea], the mortality at 50 µg/cm2 [1] was 50 to 100% and the mortality at 50 µg/cm2 [2] was 0%.
`O=C(/N=C1\SCC(=O)N1C1CCCCC1)Nc1ccc(CCc2ncn(-c3ccc(OC(F)(F)F)cc3)n2)cc1` [F35, (Z)-1-(3-Cyclohexyl-4-oxothiazolidin-2-ylidene)-3-(4-(2-(1-(4-(trifluoromethoxy)phenyl)-1H-1,2,4-triazol-3-yl)ethyl)phenyl)urea] gave a mortality at 50 µg/cm2 [1] of 50 to 100% and a mortality at 50 µg/cm2 [2] of 50 to 100%.
With `Cc1ccc(C(C)C)c(-n2ccs/c2=N\C(=O)Nc2ccc(CCc3ncn(-c4ccc(OC(F)(F)F)cc4)n3)cc2)c1` [F36, (Z)-1-(3-(2-Isopropyl-5-methylphenyl)thiazol-2(3H)-ylidene)-3-(4-(2-(1-(4-(trifluoromethoxy)phenyl)-1H-1,2,4-triazol-3-yl)ethyl)phenyl)urea] the mortality at 50 µg/cm2 [1] was 50 to 100% and the mortality at 50 µg/cm2 [2] was 50 to 100%.
Compound `Cc1ccc(C(C)C)c(-n2ccs/c2=N\C(=O)Nc2ccc(CCc3ncn(-c4ccc(OC(F)(F)F)cc4)n3)cc2F)c1` [F37, (Z)-1-(2-Fluoro-4-(2-(1-(4-(trifluoromethoxy)phenyl)-1H-1,2,4-triazol-3-yl)ethyl)phenyl)-3-(3-(2-isopropyl-5-methylphenyl)thiazol-2(3H)-ylidene)urea] has a mortality at 50 µg/cm2 [1] of 50 to 100% and a mortality at 50 µg/cm2 [2] of 50 to 100%.
For `Cc1ccc(C(C)C)c(N2C(=O)CS/C2=N\C(=O)Nc2ccc(/C=C/c3ncn(-c4ccc(OC(F)(F)F)cc4)n3)c(C)c2)c1` [F39, 1-((Z)-3-(2-Isopropyl-5-methylphenyl)-4-oxothiazolidin-2-ylidene)-3-(3-methyl-4-((E)-2-(1-(4-(trifluoromethoxy)phenyl)-1H-1,2,4-triazol-3-yl)vinyl)phenyl)urea], the mortality at 50 µg/cm2 [1] was 50 to 100% and the mortality at 50 µg/cm2 [2] was 50 to 100%.
`COc1cc(NC(=O)/N=C2\SCC(=O)N2c2cc(C)ccc2C(C)C)ccc1/C=C/c1ncn(-c2ccc(OC(F)(F)F)cc2)n1` [F40, 1-((Z)-3-(2-Isopropyl-5-methylphenyl)-4-oxothiazolidin-2-ylidene)-3-(3-methoxy-4-((E)-2-(1-(4-(trifluoromethoxy)phenyl)-1H-1,2,4-triazol-3-yl)vinyl)phenyl)urea] showed a mortality at 50 µg/cm2 [1] of 50 to 100% and a mortality at 50 µg/cm2 [2] of 50 to 100%.
Compound `Cc1ccc(F)c(N2C(=O)CS/C2=N\C(=O)Nc2ccc(/C=C/c3ncn(-c4ccc(OC(F)(F)F)cc4)n3)cc2)c1` [F41, 1-((Z)-3-(2-Fluoro-5-methylphenyl)-4-oxothiazolidin-2-ylidene)-3-(4-((E)-2-(1-(4-(trifluoromethoxy)phenyl)-1H-1,2,4-triazol-3-yl)vinyl)phenyl)urea] has a mortality at 50 µg/cm2 [1] of 50 to 100% and a mortality at 50 µg/cm2 [2] of 50 to 100%.
`COc1ccc(C)cc1N1C(=O)CS/C1=N\C(=O)Nc1ccc(/C=C/c2ncn(-c3ccc(OC(F)(F)F)cc3)n2)cc1` [F42, 1-((Z)-3-(2-Methoxy-5-methylphenyl)-4-oxothiazolidin-2-ylidene)-3-(4-((E)-2-(1-(4-(trifluoromethoxy)phenyl)-1H-1,2,4-triazol-3-yl)vinyl)phenyl)urea] was tested, and the mortality at 50 µg/cm2 [1] was 50 to 100% and the mortality at 50 µg/cm2 [2] was 50 to 100%.
For `Cc1ccc(C(F)(F)F)c(N2C(=O)CS/C2=N\C(=O)Nc2ccc(/C=C/c3ncn(-c4ccc(OC(F)(F)F)cc4)n3)cc2)c1` [F43, 1-((Z)-3-(5-Methyl-2-(trifluoromethyl)phenyl)-4-oxothiazolidin-2-ylidene)-3-(4-((E)-2-(1-(4-(trifluoromethoxy)phenyl)-1H-1,2,4-triazol-3-yl)vinyl)phenyl)urea], the mortality at 50 µg/cm2 [1] was 50 to 100% and the mortality at 50 µg/cm2 [2] was 50 to 100%.
